Results taken from patent US20040034076A1, “Novel carbamates and carbamides, production and use thereof as endothelin receptor antagonists” (priority 2000, published 2004).

Key:
[1] = target: T1, human ETA receptor (Homo sapiens, UniProt P25101); assay: ETA receptor binding test ([125J]-ET1, CHO cell membranes); settings: cloned human ETA receptor-expressing CHO cell membranes, 25 pM [125J]-ET1, 25° C., 30 min
T1 construct: expressed in transfected cells; host or cells: CHO cells
T1 sequence (P25101 21-427): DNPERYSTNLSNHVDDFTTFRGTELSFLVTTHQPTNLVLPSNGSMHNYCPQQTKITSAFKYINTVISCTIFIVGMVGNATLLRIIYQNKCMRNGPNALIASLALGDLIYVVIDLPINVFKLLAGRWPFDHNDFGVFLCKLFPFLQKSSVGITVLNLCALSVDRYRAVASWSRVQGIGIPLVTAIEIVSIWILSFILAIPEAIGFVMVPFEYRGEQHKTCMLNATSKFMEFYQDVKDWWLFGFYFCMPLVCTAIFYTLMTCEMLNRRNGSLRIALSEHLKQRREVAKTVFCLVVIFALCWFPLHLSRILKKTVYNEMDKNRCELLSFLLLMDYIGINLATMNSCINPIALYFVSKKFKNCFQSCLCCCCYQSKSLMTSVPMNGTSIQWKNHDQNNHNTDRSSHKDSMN
Protocol: (§1) For binding studies, cloned human ETA or ETB receptor-expressing CHO cells were employed.
(§2) The ETA or ETB receptor-expressing CHO cells were proliferated in DMEM NUT MIX F12 medium (Gibco, No. 21331-020) using 10% fetal calf serum (PAA Laboratories GmbH, Linz, No. A15-022), 1 mM glutamine (Gibco No. 25030-024), 100 U/ml of penicillin and 100 μg/ml of streptomycin (Gibco, Sigma No P-0781). After 48 hours, the cells were washed with PBS and incubated at 37° C. for 5 minutes with 0.05% trypsin-containing PBS. Neutralization was then carried out with medium and the cells were collected by centrifugation at 300×g.
(§3) For membrane preparation, the cells were adjusted to a concentration of 10^8 cells/ml of buffer (50 mM tris-HCl buff r, pH 7.4) and then disintegrated by ultrasound (Branson Sonifier 250, 40-70 seconds/constant/output 20).
(§4) For the ETA and ETB receptor binding test, the membranes were suspended in incubation buffer (50 mM tris HCl, pH 7.4 with 5 mM MnCl2, 40 mg/ml of bacitracin and 0.2% of BSA) in a concentration of 50 μg of protein per test batch and incubated at 25° C. with 25 pM of [125J]-ET1 (ETA receptor test) or 25 pM of [125I)-ET3 (ETB receptor test) in the presence and absence of test substance. The nonspecific binding was determined using 10^−7 M ET1. After 30 min, the free and the bound radioligand was separated by filtration through GF/B glass fiber filters (Whatman, England) on a Skatron cell collector (Skatron, Lier, Norway) and the filters were washed with ice-cold tris HCl buffer, pH 7.4 with 0.2% of BSA. The radioactivity collected on the filters was quantified using a Packard 2200 CA liquid scintillation counter.

[2] = target: T2, human ETB receptor (Homo sapiens, UniProt P24530); assay: ETB receptor binding test ([125I]-ET3, CHO cell membranes); settings: cloned human ETB receptor-expressing CHO cell membranes, 25 pM [125I]-ET3, 25° C., 30 min
T2 construct: expressed in transfected cells; host or cells: CHO cells
T2 sequence (P24530 27-442): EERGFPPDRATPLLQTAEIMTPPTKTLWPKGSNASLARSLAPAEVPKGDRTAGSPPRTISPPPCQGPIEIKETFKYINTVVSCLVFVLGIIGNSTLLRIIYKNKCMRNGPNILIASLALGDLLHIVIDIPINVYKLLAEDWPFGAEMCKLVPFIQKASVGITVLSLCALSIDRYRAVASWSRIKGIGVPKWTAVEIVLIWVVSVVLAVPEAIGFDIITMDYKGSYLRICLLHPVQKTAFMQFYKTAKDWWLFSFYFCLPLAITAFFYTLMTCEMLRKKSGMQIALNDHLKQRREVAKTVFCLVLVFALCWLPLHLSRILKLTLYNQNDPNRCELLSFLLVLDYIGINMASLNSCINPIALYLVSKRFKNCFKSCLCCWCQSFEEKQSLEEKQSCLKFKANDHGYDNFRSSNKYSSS
Protocol: as §1, §2, §3, §4

Row | Compound | Ki [1] [nM] | Ki [2] [nM]
1 | COc1cc(OC)nc(OC(C(=O)O)C(NC(=O)Oc2ccc(C)c(C)c2)(c2ccccc2)c2ccccc2)n1 (stereo not drawn) [Compound I-168, 2-[(4,6-Dimethoxy-2-pyrimidinyl)oxy]-N-[(3,4-dimethylphenoxy)-carbonyl]-3,3-diphenyl-β-alanine] | 105 | 730
2 | Cc1cc(C)nc(OC(C(=O)O)C(NC(=O)N2CCCCC2)(c2ccccc2)c2ccccc2)n1 (stereo not drawn) [Compound I-52, 2-[(4,6-Dimethyl-2-pyrimidinyl)oxy]-3,3-diphenyl-N-(1-piperidinylcarbonyl)-β-alanine] | 73 | 4220
3 | COc1cc(OC)nc(OC(C(=O)O)C(NC(=O)N(C)C)(c2ccccc2)c2ccccc2)n1 (stereo not drawn) [Compound I-11, 2-[(4,6-Dimethoxy-2-pyrimidinyl)oxy]-N-[(dimethylamino)carbonyl]-3,3-diphenyl-β-alanine] | 397 | > 10000
4 | COc1ccc(CN(C)C(=O)NC(c2ccccc2)(c2ccccc2)C(Oc2nc(OC)cc(OC)n2)C(=O)O)cc1 (stereo not drawn) [Compound I-23, 2-[(4,6-Dimethoxy-2-pyrimidinyl)oxy]-N-{[(4-methoxybenzyl)-(methyl)amino]carbonyl}-3,3-diphenyl-β-alanine] | 147 | 6620
5 | COC(=O)NC(c1ccccc1)(c1ccccc1)C(Oc1nc(OC)cc(OC)n1)C(=O)O (stereo not drawn) [Compound I-230, 2-[(4,6-Dimethoxy-2-pyrimidinyl)oxy]-N-(methoxycarbonyl)-3,3-diphenyl-β-alanine] | 89 | > 10000
6 | COc1ccc(CN(C)C(=O)NC(c2ccccc2)(c2ccccc2)C(Oc2nc(C)cc(C)n2)C(=O)O)cc1 (stereo not drawn) [Compound I-194, 2-[(4,6-Dirnethyl-2-pyrimidinyl)oxy]-N-{[(4-methoxybenzyl)-(methyl)amino]carbonyl}-3,3-diphenyl-β-alanine] | 14 | 2330
7 | COc1cc(OC)nc(OC(C(=O)O)C(NC(=O)N(C)Cc2ccccc2)(c2ccccc2)c2ccccc2)n1 (stereo not drawn) [Compound I-260, N-{[Benzyl(methyl)amino]carbonyl}-2-[(4,6-dimethoxy-2-pyrimidinyl)oxy]-3,3-diphenyl-β-alanine] | 235 | 2440
8 | CCN(CC)C(=O)NC(c1ccccc1)(c1ccccc1)C(Oc1nc(OC)cc(OC)n1)C(=O)O (stereo not drawn) [Compound I-86, N-[(Diethylamino)carbonyl]-2-[(4,6-dimethoxy-2-pyrimidinyl)oxy]-3,3-diphenyl-β-alanine] | 253 | > 10000
9 | COc1cc(OC)nc(OC(C(=O)O)C(NC(=O)OCc2ccccc2)(c2ccccc2)c2ccccc2)n1 (stereo not drawn) [Compound I-140, N-[(Benzyloxy)carbonyl]-2-[(4,6-dimethoxy-2-pyrimidinyl)oxy]-3,3-diphenyl-β-alanine] | 97 | 2340
10 | COc1ccc(OC(=O)NC(c2ccccc2)(c2ccccc2)C(Oc2nc(OC)cc(OC)n2)C(=O)O)cc1 (stereo not drawn) [Compound I-170, 2-[(4,6-Dimethoxy-2-pyrimidinyl)oxy]-N-[(4-methoxyphenoxy)-carbonyl]-3,3-diphenyl-β-alanine] | 120 | 1930
11 | COc1cc(OC)nc(OC(C(=O)O)C(NC(=O)N(C)c2ccccc2)(c2ccccc2)c2ccccc2)n1 (stereo not drawn) [Compound I-155, 2-[(4,6-Dimethoxy-2-pyrimidinyl)oxy]-N-[(methylanilino)carbonyl]-3,3-diphenyl-β-alanine] | 265 | 5770
12 | COc1cc(OC)nc(OC(C(=O)O)C(NC(=O)OCc2cc(OC)c(OC)cc2[N+](=O)[O-])(c2ccccc2)c2ccccc2)n1 (stereo not drawn) [Compound I-266, N-{[(4,5-Dimethoxy-2-nitrobenzyl)oxy]carbonyl}-2-((4,6-dimethoxy-2-pyrimidinyl)oxy]-3,3-diphenyl-β-alanine] | 13 | 1090
13 | COc1ccc(N(C)C(=O)NC(c2ccccc2)(c2ccccc2)C(Oc2nc(OC)cc(OC)n2)C(=O)O)cc1 (stereo not drawn) [Compound I-121, 2-[(4,6-Dimethoxy-2-pyrimidinyl)oxy]-N-{[4-methoxy(methyl)-anilino]carbonyl}-3,3-diphenyl-β-alanine] | 310 | ≥ 10000
14 | Cc1cc(C)nc(OC(C(=O)O)C(NC(=O)N2CCCC2)(c2ccccc2)c2ccccc2)n1 (stereo not drawn) [Compound I-26, 2-[(4,6-Dimethyl-2-pyrimidinyl)oxy]-3,3-diphenyl-N-(1-pyrrolidinylcarbonyl)-β-alanine] | 53 | 3850
15 | Cc1cc(C)nc(OC(C(=O)O)C(NC(=O)N(C)C2CCCCC2)(c2ccccc2)c2ccccc2)n1 (stereo not drawn) [Compound I-202, N-{[Cyclohexyl(methyl)amino]carbonyl}-2-[(4,6-dimethyl-2-pyrimidinyl)oxy]-3,3-diphenyl-β-alanine] | 19 | 195
16 | Cc1cc(C)nc(OC(C(=O)O)C(NC(=O)N2CCOCC2)(c2ccccc2)c2ccccc2)n1 (stereo not drawn) [Compound I-75, 2-[(4,6-Dimethyl-2-pyrimidinyl)oxy]-N-(4-morpholinylcarbonyl)-3,3-diphenyl-β-alanine] | 117 | 3450
